From the supplement of paper PMC10307832

Legend:
Assay in all cases: relative viability (nuclei count vs DMSO), 5 days (fraction); higher = more cells survive
Venetoclax + OSI-027 = compound: CC1(C)CCC(CN2CCN(c3ccc(C(=O)NS(=O)(=O)c4ccc(NCC5CCOCC5)c([N+](=O)[O-])c4)c(Oc4cnc5[nH]ccc5c4)c3)CC2)=C(c2ccc(Cl)cc2)C1 [Venetoclax] + COc1cccc2cc(-c3nc([C@H]4CC[C@H](C(=O)O)CC4)n4ncnc(N)c34)[nH]c12 [OSI-027] (partner 0.5 µM)
How it was run: (§1)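 Cells from lung cancer lines were seeded into 1536-well plates and, one day later, dosed by pin tool. Treatments were either a single drug or a fixed dose of an anchor drug with five library-drug doses (not always all listed) in √10 steps. After 5 days, nuclei were stained in a one-step fixation (final 0.05% Triton X-100, 1% formaldehyde, 1 ug/ml Hoechst) and counted on 4× images, and relative viability is the treated-to-vehicle nuclei ratio, as the median of duplicate plates.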

Venetoclax + Crizotinib = compound: CC1(C)CCC(CN2CCN(c3ccc(C(=O)NS(=O)(=O)c4ccc(NCC5CCOCC5)c([N+](=O)[O-])c4)c(Oc4cnc5[nH]ccc5c4)c3)CC2)=C(c2ccc(Cl)cc2)C1 [Venetoclax] + C[C@@H](Oc1cc(-c2cnn(C3CCNCC3)c2)cnc1N)c1c(Cl)ccc(F)c1Cl [Crizotinib] (partner 1 µM)
How it was run: as §1

Venetoclax + Decitabine = compound: CC1(C)CCC(CN2CCN(c3ccc(C(=O)NS(=O)(=O)c4ccc(NCC5CCOCC5)c([N+](=O)[O-])c4)c(Oc4cnc5[nH]ccc5c4)c3)CC2)=C(c2ccc(Cl)cc2)C1 [Venetoclax] + Nc1ncn([C@H]2C[C@H](O)[C@@H](CO)O2)c(=O)n1 [Decitabine] (partner 2 µM)
How it was run: as §1

Selumetinib + OSI-027 = compound: Cn1cnc2c(F)c(Nc3ccc(Br)cc3Cl)c(C(=O)NOCCO)cc21 [Selumetinib] + COc1cccc2cc(-c3nc([C@H]4CC[C@H](C(=O)O)CC4)n4ncnc(N)c34)[nH]c12 [OSI-027] (partner 0.5 µM)
How it was run: as §1

| Cell Line | relative viability (Venetoclax + OSI-027; first compound 0.01 µM) | relative viability (Venetoclax + OSI-027; first compound 0.03162 µM) | relative viability (Venetoclax + OSI-027; first compound 0.1 µM) | relative viability (Venetoclax + OSI-027; first compound 0.3162 µM) | relative viability (Venetoclax + OSI-027; first compound 1 µM) | relative viability (Venetoclax + Crizotinib; first compound 0.01 µM) | relative viability (Venetoclax + Crizotinib; first compound 0.03162 µM) | relative viability (Venetoclax + Crizotinib; first compound 0.1 µM) | relative viability (Venetoclax + Crizotinib; first compound 0.3162 µM) | relative viability (Venetoclax + Crizotinib; first compound 1 µM) | relative viability (Venetoclax + Decitabine; first compound 0.01 µM) | relative viability (Venetoclax + Decitabine; first compound 0.03162 µM) | relative viability (Venetoclax + Decitabine; first compound 0.1 µM) | relative viability (Venetoclax + Decitabine; first compound 0.3162 µM) | relative viability (Venetoclax + Decitabine; first compound 1 µM) | relative viability (Selumetinib + OSI-027; first compound 0.02 µM) | relative viability (Selumetinib + OSI-027; first compound 0.06325 µM) | relative viability (Selumetinib + OSI-027; first compound 0.2 µM) | relative viability (Selumetinib + OSI-027; first compound 0.6325 µM) |
| --- | --- | --- | --- | --- | --- | --- | --- | --- | --- | --- | --- | --- | --- | --- | --- | --- | --- | --- | --- |
| HCC-15 | 0.653 | 0.67 | 0.721 | 0.658 | 0.549 | 0.814 | 0.839 | 0.709 | 0.742 | 0.617 | 0.519 | 0.699 | 0.611 | 0.611 | 0.543 | 0.522 | 0.344 | 0.256 | 0.19 |
| PC-3 [JPC-3] | 0.676 | 0.719 | 0.779 | 0.791 | 0.608 | 0.896 | 0.987 | 1.04 | 0.965 | 0.969 | 0.854 | 0.788 | 0.931 | 0.809 | 0.805 | 0.712 | 0.752 | 0.749 | 0.787 |
| NCI-H1915 | 0.587 | 0.624 | 0.596 | 0.612 | 0.586 | 0.882 | 0.862 | 0.811 | 0.836 | 0.805 | 0.23 | 0.279 | 0.258 | 0.258 | 0.258 | 0.603 | 0.425 | 0.33 | 0.301 |
| HCC-827 | 0.799 | 0.839 | 0.776 | 0.733 | 0.755 | 0.982 | 0.923 | 0.924 | 0.94 | 0.837 | 0.303 | 0.418 | 0.34 | 0.249 | 0.346 | 0.782 | 0.751 | 0.62 | 0.708 |
| LC-2-ad | 1.01 | 0.934 | 0.72 | 0.905 | 0.845 | 0.46 | 0.465 | 0.439 | 0.466 | 0.51 | 0.858 | 0.778 | 0.785 | 0.78 | 0.765 | 0.828 | 0.662 | 0.631 | 0.726 |
| NCI-H460 | 0.681 | 0.592 | 0.585 | 0.62 | 0.515 | 0.902 | 0.773 | 0.946 | 0.908 | 0.719 | 0.442 | 0.525 | 0.493 | 0.498 | 0.447 | 0.52 | 0.425 | 0.227 | 0.225 |
| NCI-H441 | 0.569 | 0.566 | 0.608 | 0.575 | 0.553 | 0.845 | 0.976 | 0.745 | 0.679 | 0.71 | 0.235 | 0.219 | 0.208 | 0.23 | 0.24 | 0.593 | 0.494 | 0.598 | 0.517 |
| LCLC-97TM1 | 0.519 | 0.704 | 0.556 | 0.478 | 0.465 |  | 0.306 | 0.342 | 0.301 | 0.312 | 0.242 | 0.236 | 0.238 | 0.204 | 0.222 | 0.487 | 0.386 | 0.325 | 0.249 |
| NCI-H2228 | 0.423 | 0.545 | 0.62 | 0.546 | 0.396 | 0.432 | 0.519 | 0.538 | 0.427 | 0.544 |  |  |  |  |  | 0.48 | 0.512 | 0.402 | 0.374 |
| NCI-H1793 | 0.299 | 0.37 | 0.207 | 0.239 | 0.186 |  |  |  |  |  | 0.301 | 0.58 | 0.521 | 0.45 | 0.49 | 0.251 | 0.243 | 0.231 | 0.258 |
| NCI-H522 | 0.631 | 0.759 | 0.684 | 0.824 | 0.6 |  |  |  |  |  | 0.657 | 0.694 | 0.617 | 0.605 | 0.677 | 0.693 | 0.64 | 0.685 | 0.682 |
| NCI-H1648 | 0.287 | 0.24 | 0.313 | 0.265 | 0.256 |  |  |  |  |  |  | 0.487 | 0.418 | 0.634 | 0.491 | 0.29 | 0.266 | 0.293 | 0.289 |
| NCI-H2342 | 0.767 | 0.708 | 0.554 | 0.715 | 0.665 |  |  |  |  |  | 0.777 | 0.735 | 0.713 | 0.764 | 0.693 | 0.611 | 0.6 | 0.46 | 0.59 |
| NCI-H1299 |  |  |  |  |  | 0.974 | 0.998 | 0.937 | 0.912 | 0.907 |  |  |  |  |  |  |  |  |  |
| SW 900 | 0.641 | 0.548 | 0.484 | 0.525 | 0.604 |  |  |  |  |  | 0.455 | 0.444 | 0.356 | 0.405 | 0.39 | 0.594 | 0.554 | 0.477 | 0.588 |
| NCI-H1395 | 0.623 | 0.603 | 0.605 | 0.656 | 0.662 |  |  |  |  |  | 0.71 | 0.673 | 0.736 | 0.692 | 0.63 | 0.625 | 0.641 | 0.628 | 0.631 |
| A549 |  |  |  |  |  | 0.707 | 0.668 | 0.886 | 0.649 | 0.61 | 0.22 | 0.325 | 0.159 | 0.214 | 0.274 |  |  |  |  |
